ChEMBL document CHEMBL5465560, “Selectivity Literature for EUbOPEN Chemogenomic Library” (2024)

Experiments:
[1] = target: Choline kinase alpha (Homo sapiens) (UniProt P35790); test: Selectivity interaction (Kinase panel (literature)) EUB0001199aCl CHKA; settings: at 1 µM
[2] = target: Serine/threonine-protein kinase VRK2 (Homo sapiens) (UniProt Q86Y07); test: Selectivity interaction (KinomeScan (DiscoverX)) EUB0000666a VRK2; settings: at 10 µM
[3] = target: Mitogen-activated protein kinase kinase kinase 9 (Homo sapiens) (UniProt P80192); test: Selectivity interaction (KinomeScan (DiscoverX)) EUB0000229b MAP3K9; settings: at 10 µM
[4] = target: Mitogen-activated protein kinase kinase kinase 9 (Homo sapiens) (UniProt P80192); settings: at 10 µM
[5] = target: Fibroblast growth factor receptor 2 (Homo sapiens) (UniProt P21802); test: Selectivity interaction (Kinase panel (DSF assay)) EUB0001559a FGFR2
[6] = target: T1, Mitogen-activated protein kinase kinase kinase 5 (Homo sapiens) (UniProt Q99683); test: Selectivity interaction (Kinase panel (DSF assay)) EUB0001559a MAP3K5
T1 sequence (whole entry): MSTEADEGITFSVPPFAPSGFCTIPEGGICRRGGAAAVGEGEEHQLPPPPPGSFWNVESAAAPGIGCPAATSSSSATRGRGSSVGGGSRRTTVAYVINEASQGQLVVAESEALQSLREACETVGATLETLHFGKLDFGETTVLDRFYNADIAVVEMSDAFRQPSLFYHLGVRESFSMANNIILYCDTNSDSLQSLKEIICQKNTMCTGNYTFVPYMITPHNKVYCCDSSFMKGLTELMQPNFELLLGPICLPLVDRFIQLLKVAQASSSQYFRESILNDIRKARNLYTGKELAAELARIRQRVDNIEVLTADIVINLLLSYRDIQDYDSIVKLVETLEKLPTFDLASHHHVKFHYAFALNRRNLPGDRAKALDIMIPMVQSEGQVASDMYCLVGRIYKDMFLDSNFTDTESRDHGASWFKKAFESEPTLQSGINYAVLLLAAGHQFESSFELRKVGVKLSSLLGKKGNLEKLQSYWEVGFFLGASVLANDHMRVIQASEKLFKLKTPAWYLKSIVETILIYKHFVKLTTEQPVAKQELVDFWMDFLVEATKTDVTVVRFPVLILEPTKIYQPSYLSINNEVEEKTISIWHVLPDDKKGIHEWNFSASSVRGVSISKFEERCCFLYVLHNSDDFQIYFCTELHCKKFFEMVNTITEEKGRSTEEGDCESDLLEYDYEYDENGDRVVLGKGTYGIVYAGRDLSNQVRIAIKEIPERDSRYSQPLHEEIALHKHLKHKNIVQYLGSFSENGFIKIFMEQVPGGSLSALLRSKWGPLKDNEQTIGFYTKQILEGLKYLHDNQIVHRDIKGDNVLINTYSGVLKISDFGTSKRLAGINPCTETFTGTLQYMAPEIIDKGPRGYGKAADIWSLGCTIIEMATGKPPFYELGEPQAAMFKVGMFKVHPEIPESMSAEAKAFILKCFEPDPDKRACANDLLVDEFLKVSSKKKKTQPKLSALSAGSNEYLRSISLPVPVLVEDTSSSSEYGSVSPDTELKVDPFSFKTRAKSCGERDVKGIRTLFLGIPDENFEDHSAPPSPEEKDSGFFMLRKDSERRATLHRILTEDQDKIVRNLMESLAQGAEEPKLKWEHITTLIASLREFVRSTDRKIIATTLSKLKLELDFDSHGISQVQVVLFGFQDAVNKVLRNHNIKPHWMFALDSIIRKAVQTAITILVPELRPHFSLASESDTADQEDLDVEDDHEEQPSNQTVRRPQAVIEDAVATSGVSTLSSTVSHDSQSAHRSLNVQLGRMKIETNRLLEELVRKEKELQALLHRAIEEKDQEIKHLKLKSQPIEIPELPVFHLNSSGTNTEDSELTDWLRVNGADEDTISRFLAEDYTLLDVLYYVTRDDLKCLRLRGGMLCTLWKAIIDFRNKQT

[7] = target: Calcium/calmodulin-dependent protein kinase type II subunit beta (Homo sapiens) (UniProt Q13554); test: Selectivity interaction (KinomeScan (DiscoverX)) EUB0000595a CAMK2B; settings: at 10 µM
[8] = target: T2, Serine/threonine-protein kinase DCLK1 (Homo sapiens) (UniProt O15075); test: Selectivity interaction (KinomeScan (DiscoverX)) EUB0000655a DCLK1; settings: at 10 µM
T2 sequence (whole entry): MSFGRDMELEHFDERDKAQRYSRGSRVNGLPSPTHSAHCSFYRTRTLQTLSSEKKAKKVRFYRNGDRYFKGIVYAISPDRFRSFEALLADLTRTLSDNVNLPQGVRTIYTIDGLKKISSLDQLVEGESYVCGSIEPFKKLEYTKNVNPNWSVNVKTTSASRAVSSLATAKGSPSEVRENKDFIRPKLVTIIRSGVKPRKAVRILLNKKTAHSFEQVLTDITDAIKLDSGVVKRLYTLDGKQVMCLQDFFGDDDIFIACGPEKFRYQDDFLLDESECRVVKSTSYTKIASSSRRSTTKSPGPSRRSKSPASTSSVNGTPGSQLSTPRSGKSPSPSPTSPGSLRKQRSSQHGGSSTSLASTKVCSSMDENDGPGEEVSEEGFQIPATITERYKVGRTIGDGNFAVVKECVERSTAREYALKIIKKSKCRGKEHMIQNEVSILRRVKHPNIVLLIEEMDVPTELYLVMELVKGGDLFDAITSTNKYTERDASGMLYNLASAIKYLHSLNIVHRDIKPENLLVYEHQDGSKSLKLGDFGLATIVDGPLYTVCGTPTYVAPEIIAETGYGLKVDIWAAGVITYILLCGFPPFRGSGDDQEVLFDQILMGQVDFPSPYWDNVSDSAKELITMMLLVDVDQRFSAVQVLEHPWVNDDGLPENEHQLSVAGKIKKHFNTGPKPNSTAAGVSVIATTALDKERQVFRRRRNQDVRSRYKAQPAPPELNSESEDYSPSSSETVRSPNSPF

Chain of Mitogen-activated protein kinase kinase kinase 9 (Homo sapiens) (P80192 whole entry, looked up): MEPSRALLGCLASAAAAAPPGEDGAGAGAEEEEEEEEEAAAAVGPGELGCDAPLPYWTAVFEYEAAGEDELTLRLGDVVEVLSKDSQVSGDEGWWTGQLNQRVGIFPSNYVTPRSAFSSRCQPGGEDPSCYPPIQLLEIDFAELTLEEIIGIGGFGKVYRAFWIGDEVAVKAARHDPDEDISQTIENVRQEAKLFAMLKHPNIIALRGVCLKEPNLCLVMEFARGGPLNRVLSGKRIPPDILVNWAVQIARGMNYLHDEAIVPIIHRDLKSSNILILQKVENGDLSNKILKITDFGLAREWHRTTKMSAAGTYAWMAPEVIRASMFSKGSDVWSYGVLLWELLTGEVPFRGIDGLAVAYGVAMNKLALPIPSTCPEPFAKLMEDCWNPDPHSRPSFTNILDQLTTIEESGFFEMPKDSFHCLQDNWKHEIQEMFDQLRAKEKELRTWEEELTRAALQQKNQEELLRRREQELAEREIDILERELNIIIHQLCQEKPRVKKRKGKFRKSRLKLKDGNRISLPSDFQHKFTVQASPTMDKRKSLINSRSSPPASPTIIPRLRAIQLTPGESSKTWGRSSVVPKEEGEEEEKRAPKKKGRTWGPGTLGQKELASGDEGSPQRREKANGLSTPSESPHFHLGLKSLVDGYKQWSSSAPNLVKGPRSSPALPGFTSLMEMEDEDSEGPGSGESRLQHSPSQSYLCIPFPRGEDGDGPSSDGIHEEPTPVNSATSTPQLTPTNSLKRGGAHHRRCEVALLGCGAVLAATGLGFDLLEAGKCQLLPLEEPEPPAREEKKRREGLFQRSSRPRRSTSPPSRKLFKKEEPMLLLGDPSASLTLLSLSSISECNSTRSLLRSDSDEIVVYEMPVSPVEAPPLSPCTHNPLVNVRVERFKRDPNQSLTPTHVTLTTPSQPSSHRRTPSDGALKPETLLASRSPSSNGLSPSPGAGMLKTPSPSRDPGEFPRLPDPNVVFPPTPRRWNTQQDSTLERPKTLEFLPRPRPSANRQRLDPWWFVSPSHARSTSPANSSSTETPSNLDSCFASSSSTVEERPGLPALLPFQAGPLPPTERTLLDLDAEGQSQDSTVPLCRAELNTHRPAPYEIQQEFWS
Chain of Serine/threonine-protein kinase VRK2 (Homo sapiens) (Q86Y07 whole entry): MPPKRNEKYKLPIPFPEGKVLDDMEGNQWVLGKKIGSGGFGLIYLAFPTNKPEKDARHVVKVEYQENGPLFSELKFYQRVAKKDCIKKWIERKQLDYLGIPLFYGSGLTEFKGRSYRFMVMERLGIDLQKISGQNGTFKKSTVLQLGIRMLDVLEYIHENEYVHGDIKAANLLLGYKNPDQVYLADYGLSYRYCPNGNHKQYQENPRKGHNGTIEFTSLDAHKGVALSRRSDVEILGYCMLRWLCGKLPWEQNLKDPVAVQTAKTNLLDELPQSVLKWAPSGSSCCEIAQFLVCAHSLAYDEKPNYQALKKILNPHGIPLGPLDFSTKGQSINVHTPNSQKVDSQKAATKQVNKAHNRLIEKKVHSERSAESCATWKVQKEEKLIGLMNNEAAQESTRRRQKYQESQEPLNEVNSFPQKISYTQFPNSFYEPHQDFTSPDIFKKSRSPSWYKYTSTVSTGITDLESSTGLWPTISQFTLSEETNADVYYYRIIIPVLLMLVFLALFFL
Chain of Fibroblast growth factor receptor 2 (Homo sapiens) (P21802 22-821 limits assumed): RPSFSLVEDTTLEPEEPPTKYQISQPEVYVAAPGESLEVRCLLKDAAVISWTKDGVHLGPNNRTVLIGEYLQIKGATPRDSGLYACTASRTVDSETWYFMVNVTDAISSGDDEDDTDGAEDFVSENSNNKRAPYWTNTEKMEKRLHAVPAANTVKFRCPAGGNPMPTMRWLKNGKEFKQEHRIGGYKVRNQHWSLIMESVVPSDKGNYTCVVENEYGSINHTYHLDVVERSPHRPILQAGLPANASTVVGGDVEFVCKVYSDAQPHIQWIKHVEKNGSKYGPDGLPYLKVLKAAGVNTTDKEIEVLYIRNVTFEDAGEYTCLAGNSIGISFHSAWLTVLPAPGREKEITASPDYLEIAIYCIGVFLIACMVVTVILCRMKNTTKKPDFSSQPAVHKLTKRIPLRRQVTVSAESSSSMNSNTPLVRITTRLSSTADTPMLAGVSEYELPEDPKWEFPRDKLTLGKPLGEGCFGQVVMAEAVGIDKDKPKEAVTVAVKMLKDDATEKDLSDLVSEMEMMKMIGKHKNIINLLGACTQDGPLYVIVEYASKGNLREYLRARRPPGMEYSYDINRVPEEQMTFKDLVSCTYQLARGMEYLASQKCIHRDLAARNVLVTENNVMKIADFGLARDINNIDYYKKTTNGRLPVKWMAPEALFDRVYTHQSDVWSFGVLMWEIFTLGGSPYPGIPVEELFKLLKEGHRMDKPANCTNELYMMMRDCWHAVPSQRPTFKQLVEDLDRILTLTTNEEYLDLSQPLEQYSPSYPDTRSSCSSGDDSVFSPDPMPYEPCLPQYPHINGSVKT
Chain of Calcium/calmodulin-dependent protein kinase type II subunit beta (Homo sapiens) (Q13554 whole entry): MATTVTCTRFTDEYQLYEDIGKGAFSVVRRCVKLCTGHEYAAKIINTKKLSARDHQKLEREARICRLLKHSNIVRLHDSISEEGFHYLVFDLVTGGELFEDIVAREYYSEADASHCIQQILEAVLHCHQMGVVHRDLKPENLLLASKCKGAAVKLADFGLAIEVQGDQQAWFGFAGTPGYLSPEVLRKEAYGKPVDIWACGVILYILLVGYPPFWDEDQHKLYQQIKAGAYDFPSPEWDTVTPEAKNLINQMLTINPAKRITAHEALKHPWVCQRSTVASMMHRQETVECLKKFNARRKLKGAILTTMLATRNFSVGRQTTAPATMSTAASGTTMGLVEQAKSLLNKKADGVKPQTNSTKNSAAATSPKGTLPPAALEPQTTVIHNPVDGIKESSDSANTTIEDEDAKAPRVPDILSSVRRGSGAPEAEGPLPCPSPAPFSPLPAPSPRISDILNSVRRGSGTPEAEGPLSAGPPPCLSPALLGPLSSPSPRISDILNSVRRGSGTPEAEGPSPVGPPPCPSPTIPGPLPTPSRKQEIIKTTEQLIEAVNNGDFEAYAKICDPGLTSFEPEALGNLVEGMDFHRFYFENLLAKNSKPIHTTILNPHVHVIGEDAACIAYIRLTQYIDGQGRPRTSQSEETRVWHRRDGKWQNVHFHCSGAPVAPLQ
Chain of Choline kinase alpha (Homo sapiens) (P35790 whole entry, looked up): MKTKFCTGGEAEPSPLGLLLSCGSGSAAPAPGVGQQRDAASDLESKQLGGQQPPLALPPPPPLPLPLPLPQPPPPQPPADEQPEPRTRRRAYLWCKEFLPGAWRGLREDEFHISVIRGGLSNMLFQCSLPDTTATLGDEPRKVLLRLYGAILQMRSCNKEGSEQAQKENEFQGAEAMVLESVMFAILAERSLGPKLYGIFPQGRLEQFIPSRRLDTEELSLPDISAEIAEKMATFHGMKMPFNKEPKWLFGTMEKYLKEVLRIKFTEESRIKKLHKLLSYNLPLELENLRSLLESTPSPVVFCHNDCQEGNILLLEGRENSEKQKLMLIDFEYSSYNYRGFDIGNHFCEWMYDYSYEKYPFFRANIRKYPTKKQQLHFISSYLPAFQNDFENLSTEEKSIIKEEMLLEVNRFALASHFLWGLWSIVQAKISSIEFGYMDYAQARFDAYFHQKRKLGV

How did the % of inhibition [1] turn out when CN1Cc2nccc(-c3cn(C)nc3-c3ccc(F)cc3)c2C1=O was run?
The % of inhibition was -3%.

For O=C(NOC[C@H](O)CO)c1ccc(F)c(F)c1Nc1ccc(I)cc1F, which % of control [2] is on record?
The % of control was 100%.

For COc1cc(N(C)c2ccnc3ccc(C(F)(F)F)cc23)cc(OC)c1OC, which % binding [3] is on record?
Its % binding is 88%.

With CCN(CC)CCCCNc1ncc2cc(-c3cc(OC)cc(OC)c3)c(NC(=O)NC(C)(C)C)nc2n1 as the molecule, how does the % of control [4] read?
Its % of control is 100%.

Which dTM [5] does the source give for CN(C(=O)c1cnn2cccnc12)c1cc2c(cc1N1CCOCC1)C(=O)N(C[C@@H](F)C(C)(C)O)C2 here?
Its dTM is 0.3 K.

What about the dTM [6] of the same molecule?
The dTM was -0.3 K.

How did the % of control [7] turn out when COCC(=O)NC/C=C/c1ccc2ncnc(Nc3ccc(Oc4ccc(C)nc4)c(C)c3)c2c1 [CP-724714] was run?
The % of control was 88%.

How did the % of control [8] turn out when CN(C)CCOc1ccc(-c2nc(-c3ccncc3)c(-c3ccc4c(c3)CC/C4=N\O)[nH]2)cc1 was run?
The % of control was 88%.
